# Tested on: Saccharomyces cerevisiae ABC16-Green Monster
# Assay: growth inhibition at single dose (up to 150 µM), below the 70% cut-off for dose-response; higher = more potent
# Conditions: 18 h; 30 °C; YPD
# In short: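 Values are percent growth inhibition of drug-sensitive S. cerevisiae ABC16-Green Monster cells. Cells grown overnight in YPD at 30 °C were diluted to log phase (OD600 0.1–0.2), and each library compound was added at a single dose of 150 µM to 200 µl culture per well in 96-well plates, in biological duplicates, beside untreated cultures. OD600 was read at 0 h and after 18 h at 30 °C, and compounds under 70% in both replicates were not taken to dose-response.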
row,Compound,growth inhibition at single dose [%]
1,CNc1snc(C)c1C(=O)NCCOc1ccc(OC)cc1,< 70
2,Cc1ccc2nc(Cl)c(CNCc3cccs3)cc2c1,< 70
3,CC(C)(C)c1ccc(C(=O)Nc2nc3ccccc3s2)cc1,< 70
4,CCN(CC)CCCNc1nc(-c2ccc(Cl)cc2)nc2ccccc12,< 70
5,Cc1cc(Cl)ccc1NC(=O)CCc1ccc(S(=O)(=O)NCC(C)C)cc1,< 70
6,Clc1ccc2[nH]c3c(NCCCN4CCOCC4)ncnc3c2c1,< 70
7,Clc1ccc2nc(CSc3nnc4c(n3)[nH]c3ccccc34)cn2c1,< 70
8,Cc1ccc(C(=O)NC(C)C)n1C,< 70
9,FC(F)(F)c1nc(NCCNc2ccccn2)c2ccccc2n1,< 70
10,N#CCc1c(C#N)c(N)nc(Nc2ccc(F)cc2F)c1C#N,< 70
11,COCCNC(=O)C1CCN(C(C(=O)c2c[nH]c3ccccc23)c2ccccc2)CC1 (configuration not stated),< 70
12,COc1ccc(C(C)=O)cc1N1C(=O)C2C(C1=O)C1(c3ccccc3)C(=O)C2(c2ccccc2)C(c2ccc(C)cc2)=C1c1ccc(C)cc1 (configuration not stated),< 70
13,CC(NCc1ccccc1)c1cc(Cl)ccc1O (configuration not stated),< 70
14,c1ccc(-c2[nH]c3ccccc3c2C(c2ccccn2)N2CCCC2)cc1 (configuration not stated),< 70
15,Oc1ccc2ccccc2c1CNc1nc2ccccc2[nH]1,< 70
16,COc1ccc(C2=NN(C3CCCCCC3)C(=O)C2(C)C)cc1OCCCCOc1ccc(-c2nn[nH]n2)cc1,< 70
17,CCCCc1c(CCC)c(=N)c2ccccc2n1C,< 70
18,CCOc1ccc(Nc2c3ccccc3nc3ccccc23)cc1,< 70
19,Clc1ccc(Cl)c(-c2ccc(CNCCN3CCNCC3)o2)c1,< 70
20,CN(C)c1ccc(N2C(N)=NC(N)=NC2(C)C)cc1,< 70
21,C=C(C)CCC(C)N1CCC(N2CCC(C(=O)NCCc3ccccc3)CC2)CC1 (configuration not stated),< 70
22,CC(C)(C)n1nc(-c2ccccc2)c2c(N)ncnc21,< 70
23,CC(C)(C)CN1C(=O)C(c2ccccc2)(c2ccccc2)N=C1N,< 70

row,Compound,growth inhibition at single dose [%]
1,COC(=O)c1cc(OC)c(OC)cc1NS(=O)(=O)c1ccc(Cl)cc1,< 70
2,CCCCn1c(C(C)Oc2ccc(Cl)cc2Cl)nc2cc(S(N)(=O)=O)ccc21 (configuration not stated),< 70
3,CC(C)(C)OC(=O)N1CCN(c2cc(-c3ccc(Oc4ccccc4)cc3)n[nH]2)CC1,< 70
4,CC(C)n1ncc2cc(C(=O)Nc3nc(-c4ccccn4)cs3)cnc21,< 70
5,CCCc1ccc(-c2nc(-c3ccccc3)no2)cc1,< 70
6,CC(NCC(=O)N1c2ccc(S(N)(=O)=O)cc2CC1C)C1CC2CCC1C2 (configuration not stated),< 70
7,Cn1c(=O)c2cc(C(=O)NCCCN3CCCCCC3)sc2c2ccccc21,< 70
8,COc1ccc2nc(C)cc(OCC(=O)NCc3ccccc3)c2c1,< 70
9,COc1ccc(O)c(C(=O)c2cc(Cl)c3nc4ccccc4c(=O)n3c2)c1,< 70
10,COc1cccc(NC(=O)[C@H](C(C)C)n2c(=O)[nH]c3ccccc3c2=O)c1,< 70
11,NS(=O)(=O)c1cncc(-c2ccc3nccc(-c4cn[nH]c4)c3n2)c1,< 70
12,C=CCn1c[n+](C2=C(NS(=O)(=O)c3ccc(C)cc3)C(=O)c3ccccc3C2=O)c2ccccc21,< 70
13,CCOc1ccccc1CN1CCc2nc3cc(C(C)(C)C)nn3c(O)c2C1,< 70
14,Nn1c(SCC(=O)c2c[nH]c3ccccc23)nnc1C(F)(F)F,< 70
15,O=C(NCCc1ccn(-c2ccccc2)n1)C1CCCCC1,< 70
16,Cc1nn(C)c(C)c1CC(=O)Nc1ccc(-n2cnc3ccccc32)cc1,< 70
17,O=C(Nc1ncccc1O)c1ccc(S(=O)(=O)NCCc2cccs2)cc1,< 70
18,O=C(NCc1ccc(N2CCCC2=O)cc1)c1cccnc1OCC(F)(F)F,< 70
19,Cc1cc(O)nc(-n2nc(C)cc2C)n1,< 70
20,O=C(Nc1ccc(N2CCCC2)cn1)c1cccc(F)c1,< 70
21,CCOc1cccc(C(=O)Nc2ccc(-c3nc4ccccc4[nH]3)cc2)c1,< 70
22,O=C(Nc1ccc(CNc2ncnc3cc(Cl)ccc23)cc1)C1CC1,< 70
23,CN(CC(=O)Nc1ccc(Cl)c(C(F)(F)F)c1)Cc1ccc(O)c2ncccc12,< 70

row,Compound,growth inhibition at single dose [%]
1,CCOC(=O)C1CCN(C(=O)CN2C(=O)c3ccccc3C2c2c[nH]c3ccccc23)CC1 (configuration not stated),< 70
2,Cc1ccccc1OCCSc1nc2ccc(NC(=O)c3ccccc3)cc2s1,< 70
3,Cc1cc(C)nc(SCC(=O)N2CCN(C(=O)c3ccco3)CC2)n1,< 70
4,CCOC(=O)CC(=O)CSc1nnc(-c2ccccc2Cl)n1-c1ccccc1F,< 70
5,CN1CCN(c2nccc3nc(-c4ccc(F)c(F)c4)[nH]c23)CC1,< 70
6,CCN(CC)CCNc1ccnc2cc(Cl)ccc12,< 70
7,COc1ccc(-c2cn3c(C(=O)Nc4ccccc4Cl)c(-c4ccccc4)c4c3n2CCCC4)cc1,< 70
8,CCN(CC)S(=O)(=O)c1ccc(C(C)NC(=O)c2nn(CC)c(=O)c3ccccc23)cc1 (configuration not stated),< 70
9,Cn1c(Oc2cccc3c2OC(C)(C)C3)c(C#N)c(=O)n(C)c1=O,< 70
10,Cc1cnc(N2CCN[C@@H](Cc3ccccc3)C2)nc1Oc1ccc(-n2ccnc2)cc1,< 70
11,O=C(Nc1nc2cc3c(cc2s1)OCCO3)c1cccc2c[nH]nc12,< 70
12,CO[C@@H](C(=O)N1Cc2[nH]nc(NC(=O)c3ccc(N4CCN(C)CC4)cc3)c2C1)c1ccccc1,< 70
13,CCCCOC(=O)Nc1cc2nc(C3CCCCC3)[nH]c2cc1N1CCCC1,< 70
14,CS(=O)(=O)c1ccccc1C(=O)N(Cc1ccccc1)c1ccccc1,< 70
15,COc1cc(C(=O)c2c(N)c(C#N)cn3c2nc2ccccc23)cc(OC)c1OC,< 70
16,CC(C)c1ccc(CNCC(O)c2ccccc2)cc1 (configuration not stated),< 70
17,CCNC(=O)C(C)Nc1nc(-c2cccnc2)nc2sc(C)c(C)c12 (configuration not stated),< 70
18,COc1ccc2c(c1OC)C(=O)N1c3ccccc3N=C(c3ccc(C)cc3)CC21 (configuration not stated),< 70
19,O=C(Nc1ccc(N2CCN(Cc3ccccc3)CC2)cc1)c1cccs1,< 70
20,Cc1cc(C=C2SC(=Nc3ccccc3)N(C3CCCC3)C2=O)c(C)n1-c1ccc(Cl)cc1,< 70
21,CC(Oc1ccccc1)C(=O)Nc1nc(-c2ccccn2)cs1 (configuration not stated),< 70
22,O=S(=O)(NC1CCN(c2nn3cc(-c4ccccc4)nc3s2)CC1)c1cccs1,< 70
23,C/N=c1\scc(-c2ccccc2OC)n1/N=C/c1ccc[nH]1,< 70

row,Compound,growth inhibition at single dose [%]
1,COc1ccc(C2=NN(C3CCCCCC3)C(=O)[C@@H]3CC=CC[C@H]23)cc1OCCCCOc1ccc(-c2nn[nH]n2)cc1,< 70
2,O=C(Nc1cc(Cl)cc(Cl)c1)Nc1cc(Cl)cc(Cl)c1,< 70
3,CNc1snc(C)c1C(=O)OCc1coc(-c2cccs2)n1,< 70
4,O=C(Nc1ccc(C23CC4CC(CC(c5ccccc5)(C4)C2)C3)cc1)c1cccs1,< 70
5,O=C(NC1CCN(Cc2ccccc2)CC1)c1cc(-c2cccnc2)nc2ccc(Cl)cc12,< 70
6,Cc1cnc(NC(=O)c2ccc(N(C)C3CCCCC3)cc2)s1,< 70
7,CC1COC2(CCN(c3nc(=O)c4cc(C(F)(F)F)cc([N+](=O)[O-])c4s3)CC2)O1 (configuration not stated),< 70
8,Cc1c(C)n(CCCO)c2ncn3nc(-c4ccc(F)cc4)nc3c12,< 70
9,Cc1cc(C)n(-c2nc(-c3ccccc3)cc(N(C)CCO)n2)n1,< 70
10,CCc1nc2ccc(C(=O)NCc3ccc4c(c3)OCO4)cn2c1N(C)Cc1cccs1,< 70
11,N#C/C(=N\Nc1cccc(Cl)c1)C(=O)c1cc(-c2ccccc2)c(C(F)(F)F)s1,< 70
12,O=C(NC1CCN(Cc2ccccc2)CC1)c1cc(C(=O)NC2CCN(Cc3ccccc3)CC2)cc(C(=O)NC2CCN(Cc3ccccc3)CC2)c1,< 70
13,O=C(C1CCN(c2nnnn2-c2ccccc2)CC1)N1CCc2ccccc2C1,< 70
14,CC(C)c1ccc2c(c1)/C(=N/NC(=O)c1ccccc1F)C(=O)N2,< 70
15,COc1ccc(-c2cc3ncnc(NCc4ccc(N5CCN(C)CC5)nc4)c3s2)cc1,< 70
16,Oc1ccccc1CNCC12CC3CC(CC(C3)C1)C2,< 70
17,CN1CCN(c2ccc(Cl)cc2NC(=O)c2cccc(Oc3ccccc3)c2)CC1,< 70
18,CC1CC1C(=O)NC1CCN(CC2(c3ccccc3)CCCCC2)CC1 (configuration not stated),< 70
19,O=C(Nc1ccc2c(c1)OC1(CCCCC1)O2)c1ccc[nH]c1=S,< 70
20,CCCCOc1ccc(C(=O)Nc2cc(C)on2)cc1,< 70
21,COC(=O)c1ccc(Cl)c2c1C1C=CCC1C(c1cccc3ccccc13)N2 (configuration not stated),< 70
22,Cc1ccc(Cl)cc1N1CCN(CCCNC(=O)C2CCN(c3nc4ccccc4[nH]3)CC2)CC1,< 70
23,COc1ccc(CCNc2ncnc3sc(C)cc23)cc1OC,< 70
